Experimental data as given in patent US11406575B2, “Water-free/anhydrous cream shampoo” (Henkel IP & Holding GmbH, priority 2020, dated 2022).

Assay: Viscosity, Brookfield RVT Viscometer, Spindle F (Example 6)
Format: physicochemical
Conditions: compared with SCI
Procedure: Compositions of the inventive shampoos can have a viscosity ranging from 120,000 cps to 3,000,000 cps. Viscosity can be measured using suitable viscometer known to those of skill in the art. The preferred viscosity range is 1,000,000 cps-2,000,000 cps using a Brookfield RVT Viscometer, Spindle F at 0.5 rpm for 90 sec, with around 1,500,000 cps being the most preferred.
The viscosity of various combinations of propanediol, SCI and SLMI was measured using a Brookfield RVT Viscometer, Spindle F.

CCCCCCCCCCCC(=O)OC(C)CS(=O)(=O)[O-].[Na+] (stereo not shown) [SLMI, sodium lauroyl methyl isethionate]
Effect of an increase in the percentage of SLMI on viscosity of the shampoo compositions: significantly increases the viscosity
